According to patent US9532983B2, “Benzofuran compounds, compositions, kits and/or methods thereof” (Savannah State University, priority 2013, dated 2017):
Several values for one entry are separate records, joined by “and”; a condition that tells them apart may be missing. Equal entries are not always repeated. Entries after “also recorded” stand apart in the source; their conditions may differ.

Columns and labels:
non-sigma receptors = assay: Binding screen against panel of non-sigma receptors (overall statement)
Method: (§1) Initial primary binding screening assays were performed using a 50 μM (initial)−10 μM (final) assay concentration of reference and test compounds.

MA-10 cells = assay: Cell viability assay (MTT) in MA-10 cells; format: cell-based, mouse; settings: 24 h, varying concentrations
Method: Mouse Leydig cell line (MA-10) was grown in Waymouth media containing 15% horse serum, 5% fetal bovine serum, and 1× gentamycin, which was replaced with […] G418 (geneticin) for VDAC1 knockdown (ΔVDAC1) MA10 cells. Cells were maintained at 37° C. in a humidified incubator under 5% CO2. To isolate mitochondria, cells were removed from tissue culture plates by gentle scrapping in phosphate-buffered saline at room temperature, incubated in hypotonic buffer (10 mM HEPES, pH 7.4) for 30 to 40 min, and mitochondria were isolated following readily available procedures. The mitochondrial preparation was verified by Western blotting with the cytochrome P450 SCC enzyme (Corgen, Tapai, Taiwan) and calnexin antibodies (Santa Cruz Biotechnology, Inc., Santa Cruz, Calif.).
Stock solutions (1 mM) of the ligands were made in 1× phosphate buffered saline, filter-sterilized, and then further diluted up to 1 μM with serum-free medium. Cell viability was determined by the 3-[4,5-dimethylthiazol-2yl]-2,5-diphenyltetrazolium bromide assay using a commercially available kit following the manufacturer's instructions (Promega, Madison, Wis.). MA-10 cells were plated in a 96-well plate at an initial density of 4×10^3 cells per well for 24 h at 37° C. in 5% CO2 atm. After 24 h of serum starvation, the culture media were changed to serum-free media containing 1, 5, 10, 50, and 100 nM concentration for each KSCM ligand. Next, the cells were incubated for 2 to 3 h with 0.5 mg/ml of 3-[4,5-dimethylthiazol-2yl]-2,5-diphenyltetrazolium bromide reagent and lysed with dimethyl sulfoxide, and the absorbance was measured at 550 nm (FlexStation 3; Molecular Devices, Sunnyvale, Calif.).

Alpha2A [1] = target: T1, Alpha2A (Homo sapiens, UniProt P08913); assay: Secondary binding assay, Ki determination: Alpha2A
T1 construct: expressed in transfected cells
T1 sequence (P08913 1-465): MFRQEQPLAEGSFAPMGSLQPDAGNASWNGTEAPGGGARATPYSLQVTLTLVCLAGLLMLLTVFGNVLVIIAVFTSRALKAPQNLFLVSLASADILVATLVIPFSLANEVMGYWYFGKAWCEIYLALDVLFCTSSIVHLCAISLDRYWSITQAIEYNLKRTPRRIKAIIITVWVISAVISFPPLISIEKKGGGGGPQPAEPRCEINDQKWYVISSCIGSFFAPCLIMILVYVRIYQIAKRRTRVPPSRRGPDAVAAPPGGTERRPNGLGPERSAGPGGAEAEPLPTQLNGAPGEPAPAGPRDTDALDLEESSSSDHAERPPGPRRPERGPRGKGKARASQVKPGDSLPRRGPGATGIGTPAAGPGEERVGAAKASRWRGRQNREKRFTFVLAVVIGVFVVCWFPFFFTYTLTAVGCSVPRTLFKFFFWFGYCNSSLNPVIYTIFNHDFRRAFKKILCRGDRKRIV

σ1 receptor = target: T2, σ1 receptor (Rattus norvegicus, UniProt Q9R0C9); assay: Secondary binding assay, Ki determination at σ1 receptor ([3H]pentazocine); settings: rat brain homogenate, read-out: σ-1 (Ki)
T2 construct: crude membrane fractions prepared from rat brain homogenate for σ1 receptors; from tissue; host or cells: rat brain homogenate, crude membrane fraction

Alpha2A [2] = target: T1, Alpha2A; assay: Primary binding assay at non-sigma receptors: Alpha2A; settings: 10 μM (final) assay concentration
Method: as §1

D3 = target: T3, D3 (Homo sapiens, UniProt P35462); assay: Primary binding assay at non-sigma receptors: D3; settings: 10 μM (final) assay concentration
T3 construct: expressed in transfected cells
Method: as §1

Alpha2C = target: T4, Alpha2C (Homo sapiens, UniProt P18825); assay: Secondary binding assay, Ki determination: Alpha2C
T4 construct: expressed in transfected cells
T4 sequence (P18825 1-462): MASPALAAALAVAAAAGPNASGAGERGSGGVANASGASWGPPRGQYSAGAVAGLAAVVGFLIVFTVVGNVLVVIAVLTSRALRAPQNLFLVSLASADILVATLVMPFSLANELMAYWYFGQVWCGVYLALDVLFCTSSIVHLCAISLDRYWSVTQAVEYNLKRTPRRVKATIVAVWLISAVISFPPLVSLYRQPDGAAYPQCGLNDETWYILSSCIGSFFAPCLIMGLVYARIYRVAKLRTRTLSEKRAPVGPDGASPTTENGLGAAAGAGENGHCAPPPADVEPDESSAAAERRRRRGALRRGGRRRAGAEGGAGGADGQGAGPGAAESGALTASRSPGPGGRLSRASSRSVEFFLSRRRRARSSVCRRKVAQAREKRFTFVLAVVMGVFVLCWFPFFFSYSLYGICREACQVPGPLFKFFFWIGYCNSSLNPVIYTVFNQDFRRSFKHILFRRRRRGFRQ

5HT3 = target: T5, 5HT3 (Homo sapiens, UniProt P46098); assay: Secondary binding assay, Ki determination: 5HT3
T5 construct: expressed in transfected cells
T5 sequence (P46098 24-478): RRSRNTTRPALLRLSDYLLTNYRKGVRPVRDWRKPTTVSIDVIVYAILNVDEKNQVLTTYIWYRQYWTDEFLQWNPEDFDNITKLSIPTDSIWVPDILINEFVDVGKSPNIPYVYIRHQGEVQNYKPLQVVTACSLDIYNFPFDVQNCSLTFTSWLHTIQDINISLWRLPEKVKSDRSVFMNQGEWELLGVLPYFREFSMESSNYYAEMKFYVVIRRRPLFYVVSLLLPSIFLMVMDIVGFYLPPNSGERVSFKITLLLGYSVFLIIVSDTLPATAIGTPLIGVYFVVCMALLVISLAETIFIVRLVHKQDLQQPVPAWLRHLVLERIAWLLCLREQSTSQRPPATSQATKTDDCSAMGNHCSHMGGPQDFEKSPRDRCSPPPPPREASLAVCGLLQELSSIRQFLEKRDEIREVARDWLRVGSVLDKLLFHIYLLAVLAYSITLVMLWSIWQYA

T2 sequence (Q9R0C9 whole entry): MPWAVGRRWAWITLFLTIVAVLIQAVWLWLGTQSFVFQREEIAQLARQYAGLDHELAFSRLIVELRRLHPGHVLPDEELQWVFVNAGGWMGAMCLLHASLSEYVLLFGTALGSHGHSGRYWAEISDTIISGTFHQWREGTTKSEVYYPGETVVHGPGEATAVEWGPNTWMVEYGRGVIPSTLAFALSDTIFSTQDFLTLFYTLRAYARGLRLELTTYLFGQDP
T3 sequence (P35462 whole entry): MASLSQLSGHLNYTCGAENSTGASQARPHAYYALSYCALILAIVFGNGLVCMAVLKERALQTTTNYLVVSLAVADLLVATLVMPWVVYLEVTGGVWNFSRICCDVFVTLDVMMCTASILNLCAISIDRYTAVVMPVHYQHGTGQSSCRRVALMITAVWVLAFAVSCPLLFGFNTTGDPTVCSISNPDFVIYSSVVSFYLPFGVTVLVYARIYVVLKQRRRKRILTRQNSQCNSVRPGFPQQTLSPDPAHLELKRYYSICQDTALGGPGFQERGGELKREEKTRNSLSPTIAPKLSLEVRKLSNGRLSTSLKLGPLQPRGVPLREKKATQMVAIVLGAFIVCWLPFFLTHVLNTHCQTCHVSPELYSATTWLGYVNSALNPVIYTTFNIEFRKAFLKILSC

SMILES | affinity at non-sigma receptors selected for secondary binding assay (in words) (non-sigma receptors) | selectivity for sigma receptors (σ1 and σ2) over non-sigma receptors (in words) (non-sigma receptors) | toxicity / effect on cell viability compared among the ligands (in words) (MA-10 cells) | Ki (Alpha2A [1]) [nM] | Ki (σ1 receptor) | inhibition at 10 µM (Alpha2A [2]) [%] | inhibition at 10 µM (D3) [%] | Ki (Alpha2C) [nM] | Ki (5HT3) [nM]
COc1ccc2c(C)c(C(=O)N(CCCN3CCCCC3)c3ccccc3)oc2c1 [KSCM-11, 6-Methoxy-3-methyl-N-phenyl-N-(3-(piperidin-1-yl)propyl)benzofuran-2-carboxamide] | no significant affinity | have the desired selectivity for sigma receptors | greater cytotoxic effect than KSCM-1 | 653 | 34 nM | 81.1 | 40.6 | – | –
COc1cc2oc(C(=O)N(CCCN3CCCCC3)c3ccccc3)c(C)c2cc1OC [KSCM-1, 5,6-Dimethoxy-3-methyl-N-phenyl-N-(3-(piperidin-1-yl)propyl)benzofuran-2-carboxamide] | – | – | – | – | 27 nM and 27.5 nM | – | 38.8 | 1540 | 7610
Cc1c(C(=O)N(CCCN2CCCCC2)c2ccccc2)oc2ccccc12 [KSCM-5, 3-Methyl-N-phenyl-N-(3-(piperidin-1-yl)propyl)benzofuran-2-carboxamide] | – | – | most potent decrease in cell viability; also recorded: greatest toxicity | 1230 | – | 77.7 | – | 249 | –
